In patent US10894087B2, “Multi-arm polymeric prodrug conjugates of cabazitaxel-based compounds” (Nektar Therapeutics, priority 2010, dated 2021):
Where two headings read alike, the source gives them in different places.

Legend:
[1] = test system: H460 non-small cell lung cancer (NSCLC) implants; conditions: for % TGD / MTV (Median Tumor Volume) / Median TTE (Median Time to Endpoint) / TGD (tumor growth delay compared to vehicle) / CR (Number of Complete Regressions) / PR (Number of Partial Regressions) / TFS (Number of Tumor Free Survivors) / Deaths: iv, qwk x 3; for CR (Number of Complete Regressions) / PR (Number of Partial Regressions) / TFS (Number of Tumor Free Survivors) / Deaths: N=10; for Complete regression, i.e., no detectable tumor (number of animals): through day 45, dose not given
Procedure: Purpose. Studies were conducted to assess the growth inhibitory effects of PEGylated-conjugates of cabazitaxel on H460 non-small cell lung cancer (NSCLC) implants in athymic nu/nu mice.
Experimental plan. These studies were conducted using routine methods and materials that are familiar to those skilled in the art. Briefly, 8 to 12 week old female nu/nu mice were injected subcutaneously in the flank with 1×10^7 H460 tumor cells in 0.2 mL sterile buffer. […] Animals received three intravenous doses of test article at one week intervals beginning on day 1. Cabazitaxel solutions were prepared in D5W containing 5% Tween 80:10% ethanol. PEG-cabazitaxel conjugates were prepared in D5W. The administration volume for all test articles was 10 mL/kg. The test doses were selected to represent the MTD and ½ the MTD for each test compound. The tables list the actual mg/kg for each test article and the corresponding cabazitaxel equivalent calculated based on the weight-percent cabazitaxel content for each PEGylated conjugate.
Animals were weighed on days 1-5, 7, 9, 11, 13 then biweekly until the end of the study. Tumor sizes were measured using calipers biweekly throughout the study and tumor volumes were calculated using the formula for an ellipsoid sphere: L×W^2/2=mm^3, where L and W are the major axis dimensions of the tumor in mm. Additional parameters that were monitored were the number of non-specific deaths, number of partial and complete tumor regressions, number of tumor-free survivors, and the time required for individual animals' tumors to reach 2000 mm^3. The median time for a tumor to reach 2000 mm^3 in the treatment groups (T) and control group (C) was used to calculate of the overall delay in the growth of the median tumor (TGD). Animals were monitored individually until reaching the experimental endpoint: tumor size of 2000 mm^3 or 45 days, whichever came first. […] When the study endpoint was reached, the animals were euthanized.

[2] = Maximum tolerated dose (MTD) study of PEGylated conjugates of cabazitaxel in athymic mice; type: in vivo, female athymic nu/nu mice; conditions: qw x 3, iv; for Treatment-Related Deaths / BW Nadir / BW Nadir (day): MTD study 20K conjugates; for Treatment-Related Deaths: N=5
Procedure: Purpose. This study was performed to determine appropriate doses of each compound for tumor xenograft studies. In those studies, it is desirable to administer the maximum dose of test compound that will not cause excessive loss of body weight. In general, loss of ˜15% of the initial body weight of the animal is typically the maximum desired.
Experimental procedure. MTD for 4-arm-conjugated to cabazitaxel were determined in female athymic nu/nu mice using standard methods. Briefly, 8-12 week old mice were administered test compounds or cabazitaxel intravenously at one week intervals for a total of three doses per mouse (qw×3, iv) as shown in Tables 1 and 2. For all PEG-conjugated test compounds, the doses of both the conjugate and released cabazitaxel, calculated from the cabazitaxel content of the respective conjugate, are shown. […] PEG-cabazitaxel conjugates were prepared in D5W. […] Mice were observed daily for clinical signs and body weights were recorded on days 1-5 and then biweekly until the end of study. All procedures were conducted in compliance with IACUC requirements. […] For any group with two measurements of mean body weight loss of greater than 20%, dosing was stopped and recovery was allowed. Within a group with greater than 20% mean weight loss, individual animals greater than 30% body weight loss were euthanized. Compound dosing was terminated for any group in which mean weight loss exceeded 20% or >10% of animals died. Moribund animals were euthanized and all animals were euthanized at end of study (day 30).
Results. The results for the study MTD “20K Conjugates” are summarized in Table 3 and FIG. 1 while the results for the MTD “30K and 40K Conjugates” study are summarized Table 4 and FIG. 2. […] It should be noted that this is not meant to be a definitive MTD, but is simply a guide to select an appropriate dose for conducting tumor xenograft studies using this administration route and schedule. Note too, that these MTD are given as cabazitaxel equivalents. The actual dose of each conjugate must be corrected for the wt % of cabazitaxel in that specific conjugate.

[3] = 30K and 40K conjugate xenograft study, 10 mg/kg cabazitaxel eq.
[4] = 30K and 40K conjugate xenograft study, 20 mg/kg cabazitaxel eq.
[5] = 30K and 40K conjugate xenograft study
[6] = 30K and 40K conjugate xenograft study, 15 mg/kg cabazitaxel eq.
[7] = 30K and 40K conjugate xenograft study, 30 mg/kg cabazitaxel eq.
[8] = 30K and 40K conjugate xenograft study, 6 mg/kg cabazitaxel eq.
[9] = 30K and 40K conjugate xenograft study, 12 mg/kg cabazitaxel eq.
[10] = 20K conjugate xenograft study, 12.5 mg/kg cabazitaxel eq.
[11] = 20K conjugate xenograft study, 25 mg/kg cabazitaxel eq.
[12] = 20K conjugate xenograft study, 10 mg/kg cabazitaxel eq.
[13] = 20K conjugate xenograft study, 20 mg/kg cabazitaxel eq.

Substance: 4-ARM-PEG30K-Glycinate-Linked Cabazitaxel Conjugate [4-arm-PEG30K-CM-glycine-Cabazitaxel]
- % TGD [1, 3]: 119%
- MTV (Median Tumor Volume) [1, 3]: 726 mm^3
- Median TTE (Median Time to Endpoint) [1, 3]: 32.7 days
- TGD (tumor growth delay compared to vehicle) [1, 3]: 17.8 days
- CR (Number of Complete Regressions) [1, 3]: 0
- PR (Number of Partial Regressions) [1, 3]: 1
- TFS (Number of Tumor Free Survivors) [1, 3]: 0
- % TGD [1, 4]: 208%
- MTV (Median Tumor Volume) [1, 4]: 478 mm^3
- TGD (tumor growth delay compared to vehicle) [1, 4]: 31.1 days
- CR (Number of Complete Regressions) [1, 4]: 1
- PR (Number of Partial Regressions) [1, 4]: 6
- TFS (Number of Tumor Free Survivors) [1, 4]: 1
- Complete regression, i.e., no detectable tumor (number of animals) [1, 5]: one

Substance: 4-ARM-PEG40K-Glycinate-Linked Cabazitaxel Conjugate [4-arm-PEG40K-CM-glycine-Cabazitaxel]
- % TGD [1, 6]: 146%
- MTV (Median Tumor Volume) [1, 6]: 1632 mm^3
- Median TTE (Median Time to Endpoint) [1, 6]: 36.8 days
- TGD (tumor growth delay compared to vehicle) [1, 6]: 21.9 days
- CR (Number of Complete Regressions) [1, 6]: 0
- PR (Number of Partial Regressions) [1, 6]: 0
- TFS (Number of Tumor Free Survivors) [1, 6]: 0
- % TGD [1, 7]: 208%
- MTV (Median Tumor Volume) [1, 7]: 32 mm^3
- TGD (tumor growth delay compared to vehicle) [1, 7]: 31.1 days
- CR (Number of Complete Regressions) [1, 7]: 1
- TFS (Number of Tumor Free Survivors) [1, 7]: 1
- PR (Number of Partial Regressions) ([1]; 30K and 40K conjugate xenograft study, 30 mg/kg cabazitaxel eq., 30 mg/kg): 9
- PR (Number of Partial Regressions) ([1]; 30K and 40K conjugate xenograft study, 30 mg/kg cabazitaxel eq., listed as 4-arm-PEG40K-CM-glycine-cabazitaxel, 30 mg/kg): 10
- Complete regression, i.e., no detectable tumor (number of animals) [1, 5]: one

Substance: 4-ARM-PEG30K-Alaninate-Linked Cabazitaxel Conjugate [4-arm-PEG30K-CM-alanine-Cabazitaxel]
- % TGD [1, 8]: 39%
- Median TTE (Median Time to Endpoint) [1, 8]: 20.8 days
- TGD (tumor growth delay compared to vehicle) [1, 8]: 5.9 days
- CR (Number of Complete Regressions) [1, 8]: 0
- PR (Number of Partial Regressions) [1, 8]: 0
- TFS (Number of Tumor Free Survivors) [1, 8]: 0
- % TGD [1, 9]: 158%
- MTV (Median Tumor Volume) [1, 9]: 600 mm^3
- Median TTE (Median Time to Endpoint) [1, 9]: 38.6 days
- TGD (tumor growth delay compared to vehicle) [1, 9]: 23.6 days
- CR (Number of Complete Regressions) [1, 9]: 0
- PR (Number of Partial Regressions) [1, 9]: 0
- TFS (Number of Tumor Free Survivors) [1, 9]: 0

Substance: 4-ARM-PEG20K-Butanoate-Linked Cabazitaxel Conjugate [4-arm-PEG20K-BA-Cabazitaxel]
- Treatment-Related Deaths ([2]; 7.5 mg/kg cabazitaxel eq.): 0
- BW Nadir ([2]; 15 mg/kg cabazitaxel eq.): −1.3%
- BW Nadir (day) ([2]; 15 mg/kg cabazitaxel eq.): 2 days
- Treatment-Related Deaths ([2]; 15 mg/kg cabazitaxel eq.): 0
- BW Nadir ([2]; 30 mg/kg cabazitaxel eq.): −16.6%
- BW Nadir (day) ([2]; 30 mg/kg cabazitaxel eq.): 20 days
- Treatment-Related Deaths ([2]; 30 mg/kg cabazitaxel eq.): 0
- Estimated MTD, cabazitaxel equivalents ([2]; athymic nu/nu mice, guide value, not a definitive MTD): 25 mg/kg
- Tumor growth inhibition compared with cabazitaxel and the other conjugates (in words) ([1]; 20K conjugate xenograft study): did not provide greater tumor growth inhibition than either cabazitaxel or the other PEG-cabazitaxel conjugates tested in this study
- % TGD [1, 10]: 36%
- Median TTE (Median Time to Endpoint) [1, 10]: 25.3 days
- TGD (tumor growth delay compared to vehicle) [1, 10]: 6.7 days
- CR (Number of Complete Regressions) [1, 10]: 0
- Deaths [1, 10]: 0
- PR (Number of Partial Regressions) [1, 10]: 0
- TFS (Number of Tumor Free Survivors) [1, 10]: 0
- % TGD [1, 11]: 112%
- Median TTE (Median Time to Endpoint) [1, 11]: 39.3 days
- TGD (tumor growth delay compared to vehicle) [1, 11]: 20.8 days
- CR (Number of Complete Regressions) [1, 11]: 0
- Deaths [1, 11]: 0
- PR (Number of Partial Regressions) [1, 11]: 0
- TFS (Number of Tumor Free Survivors) [1, 11]: 0

Substance: 4-ARM-PEG20K-Alaninate-Linked Cabazitaxel Conjugate [4-arm-PEG20K-CM-alanine-Cabazitaxel]
- % TGD [1, 12]: 93%
- MTV (Median Tumor Volume) [1, 12]: 908 mm^3
- Median TTE (Median Time to Endpoint) [1, 12]: 35.6 days
- TGD (tumor growth delay compared to vehicle) [1, 12]: 17.1 days
- CR (Number of Complete Regressions) [1, 12]: 0
- PR (Number of Partial Regressions) [1, 12]: 0
- TFS (Number of Tumor Free Survivors) [1, 12]: 0
- % TGD [1, 13]: 154%
- MTV (Median Tumor Volume) [1, 13]: 1470 mm^3
- TGD (tumor growth delay compared to vehicle) [1, 13]: 28.5 days
- CR (Number of Complete Regressions) [1, 13]: 0
- PR (Number of Partial Regressions) [1, 13]: 0
- TFS (Number of Tumor Free Survivors) [1, 13]: 0

Substance: 4-ARM-PEG40K-Alaninate-Linked Cabazitaxel Conjugate [4-arm-PEG40K-CM-alanine-Cabazitaxel]
- % TGD [1, 3]: 101%
- Median TTE (Median Time to Endpoint) [1, 3]: 30.1 days
- TGD (tumor growth delay compared to vehicle) [1, 3]: 15.1 days
- CR (Number of Complete Regressions) [1, 3]: 0
- PR (Number of Partial Regressions) [1, 3]: 0
- TFS (Number of Tumor Free Survivors) [1, 3]: 0
- % TGD [1, 4]: 208%
- MTV (Median Tumor Volume) [1, 4]: 184 mm^3
- TGD (tumor growth delay compared to vehicle) [1, 4]: 31.1 days
- CR (Number of Complete Regressions) [1, 4]: 1
- PR (Number of Partial Regressions) [1, 4]: 4
- TFS (Number of Tumor Free Survivors) [1, 4]: 1
- Complete regression, i.e., no detectable tumor (number of animals) [1, 5]: one

Substance: 4-ARM-PEG20K-Glycinate-Linked Cabazitaxel Conjugate [4-arm-PEG20K-CM-glycine-Cabazitaxel]
- % TGD [1, 12]: 63%
- MTV (Median Tumor Volume) [1, 12]: 1200 mm^3
- Median TTE (Median Time to Endpoint) [1, 12]: 30.1 days
- TGD (tumor growth delay compared to vehicle) [1, 12]: 11.6 days
- CR (Number of Complete Regressions) [1, 12]: 0
- PR (Number of Partial Regressions) [1, 12]: 0
- TFS (Number of Tumor Free Survivors) [1, 12]: 0
- % TGD [1, 13]: 154%
- MTV (Median Tumor Volume) [1, 13]: 1183 mm^3
- TGD (tumor growth delay compared to vehicle) [1, 13]: 28.5 days
- CR (Number of Complete Regressions) [1, 13]: 0
- PR (Number of Partial Regressions) [1, 13]: 4
- TFS (Number of Tumor Free Survivors) [1, 13]: 0
